In patent publication US4985445A, “Cancer cell metastasis inhibitors and novel compounds” (Meiji Seika Kaisha, Ltd., priority 1988, dated 1991):
Where a name gives a salt, the structure may show the parent alone. Read-outs that look alike come from different tables or passages of the source.

Experiments:
[1] = tested on: B16 subline of high pulmonary metastatic potential; test: Inhibition of pulmonary metastasis of B16 subline pretreated with compound and injected i.v. into BDF1 mice; type: in vivo, murine; mouse BDF1; conditions: for Inhibition of metastasis to the lungs (in words): B16 subline, BDF1 mice; for Pulmonary Metastasis, %: None = 100
Experimental: Based on the method described priviously (Method in Cancer Research, 15, 399-439, 1978), a subline of high metastatic potential (high pulmonary colonization) was selected from murine melanoma B16 by repeating the i.v. transplantation of the tumor cells in BDF1 mice and the isolation of pulmonary metastatic clones.
Evaluation of the metastasis inhibiting activity was performed based on the method described previously (Proc. Natl Acad. Sci. USA, 83, 1752-1756, 1986, Cancer Research, 46, 858-862, 1986).
Firstly, the B16 subline of high metastatic potential was inoculated into Dulbecco's ME medium (DME medium) supplemented with 10% bovine fetal serum and the compound represented by general formula (I) described above was added thereto.
The B16 subline of high pulmonary metastatic potential was inoculated into DME medium supplemented with 10% bovine fetal serum and 30, 100 or 300 μg/ml of N (3-phenylpropyl)-1-deoxynojirimycin was added thereto followed by incubation at 37° C. for 3 days in the presence of 5% CO2.
Inhibition of metastasis was examined in a manner similar to Test Example 2 except that N-(3-phenyl-2-propenyl)-1-deoxy-nojirimycin and N-(3-p-chlorophenyl-3-methyl-2-propenyl)-1-deoxynojirimycin were used instead of N-(3-phenylpropyl)-1-deoxynojirimycin in Test Example 2. In this test example, however, 2.5×10^5 cells each of the B16 subline were transplanted to 3 mice for each group.
The B16 subline of high pulmonary metastatic potential was inoculated into DME medium supplemented with 10% bovine fetal serum and 30 μg/ml of N-(4-phenoxy-trans-2-butenyl)-1-deoxynojirimycin was added thereto followed by incubation at 37° C. for 3 days in the presence of 5% CO2. […] The number of colonies of the B16 subline formed on the surface of and in the lung was counted.
Inhibition of metastasis was examined in a manner similar to Test Example 5 except that N-(2-phenoxyethyl)-1-deoxynojirimycin was used instead of N-(4-phenoxy-trans-2-butenyl)-1-deoxynojirimycin in Test Example 5.
The B16 sibline of high pulmonary metastatic potential was inoculated into DME medium supplemented with 10% bovine fetal serum and 10 μg/ml of D-glucaro-δ-lactam calcium salt was added thereto followed by incubation at 37° C. for 3 days in the presence of 5% CO2. […] The number of the colonies formed on the surface of and in the lung was counted.
Inhibition of metastasis was examined in a manner similar to Test Example 8 except that D-glucaro-δ-lactam methyl ester and D-glucaro-δ-lactam ethyl ester were used instead of D-glucaro-δ-lactam calcium salt in Test Example 8.
The B16 subline of high pulmonary metastatic potential was inoculated into DME medium supplemented with 10% bovine fetal serum and 10 μg/ml of 2,6-di-O-(acetylsalicyloyl)-D-gluco-δ-lactam was added thereto followed by incubation at 37° C. for 3 days in the presence of 5% CO2.
The B16 subline of high pulmonary metastatic potential was inoculated into DME medium supplemented with 10% bovine fetal serum and 30 μg/ml of 6-O-triphenylmethyl-D-gluco-δ-lactam was added thereto followed by incubation at 37° C. for 3 days in the presence of 5% CO2.
The B16 subline of high pulmonary metastatic potential was inoculated into DME medium supplemented with 10% bovine fetal serum and 30 μg/ml of 1-deoxynojirimycin was added thereto followed by incubation at 37° C. for 3 days in the presence of 5% CO2.

[2] = Acute toxicity (LD50) by mice; conditions: mouse, in vivo
[3] = tested on: B16 subline of high pulmonary metastatic potential; conditions: 3 days;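 note: + means growth and ± means marked inhibition and - means cell death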
Experimental: (§1) The B16 subline of high pulmonary metastatic potential and murine tumor cell line L 929 were cultured in DME medium supplemented with 10% bovine fetal serum at 37° C. in the presence of 5% CO2. Then, cells were detached from the Petri dish with trypsin-EDTA solution. The B16 subline and L 929 were suspended in the medium described above in 1×10^4 cells/ml and 1×10^3 cells/ml, respectively. Each suspension, 150 μl, was added to 50 μl of N-(3-phenylpropyl)-1-deoxynojirimycin solution or Adriamycin (control) solution. Incubation was performed for 3 days for the B16 subline and for 4 days for L 929 strain.
as §1, with “of N-(4-phenoxy-trans-2-butenyl)-1-deoxynojirimycin” for “of N-(3-phenylpropyl)-1-deoxynojirimycin”, “days in” for “days for”, “L 929.” for “L 929 strain.”
as §1, with “of D-glucaro-δ-lactam calcium salt” for “of N-(3-phenylpropyl)-1-deoxynojirimycin”, “(control) solutions.” for “(control) solution.”, “days in” for “days for”, “L 929.” for “L 929 strain.”
The B16 subline of high pulmonary metastatic potential and murine tumor cell line L 929 were cultured in DME medium supplemented with 10% bovine fetal serum at 37° C. in the presence of 5% CO2. Then, cells were detached from the Petri dish with trypsin-EDTA solution. The B16 subline and L 929 were suspended in the medium described above in 1×10^4 cells/ml and 1×10^3 cells/ml, respectively. Each suspension, 150 μl, was added to 50 μl of 2,6-di-O-(1-(p-chlorobenzoyl)-5-methoxy-2-methylindole-3-acetyl)-D-gluco-δ-lactam solution or and Adriamycin (control) solutions. Incubation was performed for 3 days in the B16 subline and for 4 days in L 929.
The B16 subline of high pulmanary metastatic potential and murine tumor cell line L 929 were cultured in DME medium supplemented with 10% bovine fetal serum at 37° C. in the presence of 5% CO2. Then, cells were detached from the Petri dish with trypsin-EDTA solution. The B16 subline and L 929 were suspended in the medium described above in 1×10^4 cells/ml and 1×10^3 cells/ml, respectively. Each suspension, 150 μl, was added to 50 μl of 6-O-triphenylmethyl-D-gluco-δ-lactam solution or Adriamycin (control) solutions. Incubation was performed for 3 days in the B16 sibline and for 4 days in L 929.
The B16 subline of high pulmonary metastatic potential was inoculated into DME medium supplemented with 10% bovine fetal serum and 30 μg/ml of 1-deoxynojirimycin was added thereto followed by incubation at 37° C. for 3 days in the presence of 5% CO2. […] Next, the cells were detached from the Petri dish with trypsin-EDTA solution. The cells were suspended in PBS- in 1×10^6 cells/ml as viable cells. This suspension, 0.1 ml, was intravenously injected in the tail vein of the mouse BDF1 (8 week age, male; 1 group, 3 mice). After feeding for 14 days, the mouse was sacrificed to excise the lungs. The number of colonies of the B16 subline on the surface of and in the lungs was counted.

[4] = tested on: murine tumor cell line L 929; test: Cytotoxic activity against L 929 (growth observed with inverted microscope, 4 days); type: cell-based; conditions: for Growth: 4 days;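 for growth: + means growth and ± means marked inhibition and - means cell death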
Experimental: The B16 subline of high pulmonary metastatic potential and murine tumor cell line L 929 were cultured in DME medium supplemented with 10% bovine fetal serum at 37° C. in the presence of 5% CO2.
The B16 subline of high pulmanary metastatic potential and murine tumor cell line L 929 were cultured in DME medium supplemented with 10% bovine fetal serum at 37° C. in the presence of 5% CO2.

[5] = L 929, even at a concentration as high as 30 μg/ml

COC(=O)[C@H]1NC(=O)[C@H](O)[C@@H](O)[C@@H]1O [D-Glucaro-δ-lactam methyl ester, D-glucaro-δ-lactam methyl ester]
Inhibition of metastasis to the lungs (in words) [1]: markedly inhibited
Pulmonary Metastasis (Mean ± Standard Deviation) ([1]; Table 10, 30 μg/ml, None 82 ± 11.2): 21 ± 8.5 no.
LD50 ([2]; iv): > 5000 mg/kg
LD50 ([2]; po): > 10000 mg/kg

O=C(O)[C@H]1NC(=O)[C@H](O)[C@@H](O)[C@@H]1O [D-Glucaro-δ-lactam calcium salt, D-glucaro-δ-lactam calcium salt]
Growth ([3]; Table 8, B16 subline, 10 μg/ml): +
Growth ([3]; Table 8, B16 subline, 30 μg/ml): +
Inhibition of metastasis to the lungs (in words) [1]: markedly inhibited
Pulmonary Metastasis, Mouse 1 ([1]; Table 9, 10 μg/ml, 14 days): 7 no.
Pulmonary Metastasis, Mouse 2 ([1]; Table 9, 10 μg/ml, 14 days): 4 no.
Pulmonary Metastasis, Mouse 3 ([1]; Table 9, 10 μg/ml, 14 days): 0 no.
Pulmonary Metastasis (Mean ± Standard Deviation) ([1]; Table 9, 10 μg/ml, 14 days, None 69 ± 1.0): 3.7 ± 3.5 no.
Pulmonary Metastasis, % ([1]; Table 9, 10 μg/ml): 5.4%
Cytotoxicity (in words) [4, 5]: did not show marked cytotoxicity
Growth ([4]; Table 8, L 929, 10 μg/ml): +
Growth ([4]; Table 8, L 929, 30 μg/ml): +

OC[C@@H]1[C@@H](O)[C@H](O)[C@@H](O)CN1C/C=C/COc1ccccc1 [N-(4-phenoxy-trans-2-butenyl)-1-deoxynojirimycin]
Growth ([3]; Table 5, B16 subline, 3 μg/ml): +
Growth ([3]; Table 5, B16 subline, 10 μg/ml): +
Growth ([3]; Table 5, B16 subline, 30 μg/ml): +
Inhibition of metastasis to the lungs (in words) [1]: the number of colonies on the surface of and in the lungs was decreased
Pulmonary Metastasis, Mouse 1 ([1]; Table 6, 10 μg/ml, 14 days): 14 no.
Pulmonary Metastasis, Mouse 2 ([1]; Table 6, 10 μg/ml, 14 days): 48 no.
Pulmonary Metastasis, Mouse 3 ([1]; Table 6, 10 μg/ml, 14 days): 52 no.
Pulmonary Metastasis, Mean ± Standard Derivation ([1]; Table 6, 10 μg/ml, 14 days, None 135 ± 13.4): 38 ± 20.9 no.
Pulmonary Metastasis, % ([1]; Table 6, 10 μg/ml): 28.1%
Cytotoxicity (in words) [4, 5]: did not show the marked cytotoxicity
Growth ([4]; Table 5, L 929, 3 μg/ml): +
Growth ([4]; Table 5, L 929, 30 μg/ml): +
Growth ([4]; Table 5, L 929, 100 μg/ml): +
LD50 ([2]; ip): > 500 mg/kg

CC(=O)Oc1ccccc1C(=O)OC[C@H]1NC(=O)[C@H](OC(=O)c2ccccc2OC(C)=O)[C@@H](O)[C@@H]1O [2,6-di-O-(acetylsalicyloyl)-D-gluco-δ-lactam]
Inhibition of metastasis to the lungs (in words) [1]: markedly inhibited
Pulmonary Metastasis (Mean ± Standard Deviation) ([1]; Table 12, 10 μg/ml, 3 mice, None 53 ± 22.4): 11.2 ± 3.5 no.
LD50 ([2]; ip): > 500 mg/kg

COc1ccc2c(c1)c(CC(=O)OC[C@H]1NC(=O)[C@H](OC(=O)Cc3c(C)n(C(=O)c4ccc(Cl)cc4)c4ccc(OC)cc34)[C@@H](O)[C@@H]1O)c(C)n2C(=O)c1ccc(Cl)cc1 [2,6-di-O-[1-(p-chlorobenzoyl)-5-methoxy-2-methylindole-3-acetyl]-D-gluco-δ-lactam]
Growth ([3]; Table 11, B16 subline, 10 μg/ml): +
Cytotoxicity (in words) ([4]; L 929, even at a concentration as high as 10 μg/ml): did not show marked cytotoxity
Growth ([4]; Table 11, L 929, 3 μg/ml): +
Growth ([4]; Table 11, L 929, 10 μg/ml): +
Growth ([4]; Table 11, L 929, 30 μg/ml): +

O=C(O)[C@H]1NC(=O)[C@H](O)[C@@H](O)[C@@H]1O [D-Glucaro-δ-lactam sodium salt]
LD50 ([2]; iv): > 3000 mg/kg
LD50 ([2]; po): > 5000 mg/kg

COc1cccc2c1C(=O)c1c(O)c3c(c(O)c1C2=O)C[C@@](O)(C(=O)CO)C[C@@H]3O[C@H]1C[C@H](N)[C@H](O)[C@H](C)O1 [Adriamycin, reference compound]
Growth ([3]; Table 2, B16 subline, 0.1 μg/ml, control): -
Growth ([3]; Table 5, B16 subline, 0.1 μg/ml, control): -
Growth ([3]; Table 8, B16 subline, 0.1 μg/ml, control): -
Growth ([3]; Table 11, B16 subline, 0.1 μg/ml, control): -
Growth ([3]; Table 13, B16 subline, 0.1 μg/ml, control): -
Growth ([4]; Table 2, L 929, 1 μg/ml, control): -
Growth ([4]; Table 5, L 929, 1 μg/ml, control): -
Growth ([4]; Table 8, L 929, 1 μg/ml, control): -
Growth ([4]; Table 11, L 929, 1 μg/ml, control): -
Growth ([4]; Table 13, L 929, 1 μg/ml, control): -

OC[C@@H]1[C@@H](O)[C@H](O)[C@@H](O)CN1CC=Cc1ccccc1 [N-(3-phenyl-2-propenyl)-1-deoxynojirimycin]
Inhibition of metastasis to the lungs (in words) [1]: markedly inhibited
Pulmonary Metastasis (Mean ± Standard Deviation) ([1]; Table 4, 30 μg/ml, 2.5×10^5 cells, 3 mice, None 109 ± 32.0): 16.8 ± 12.6 no.
LD50 ([2]; ip): > 500 mg/kg
